The values below come from patent US20240299416A1, “TREATMENT OF NF-kB-MEDIATED DISEASE” (ReveraGen BioPharma, Inc., priority 2021, published 2024).

The target of one series is T1, glucocorticoid receptor (Homo sapiens, UniProt P04150).
T1 sequence (P04150 1-777): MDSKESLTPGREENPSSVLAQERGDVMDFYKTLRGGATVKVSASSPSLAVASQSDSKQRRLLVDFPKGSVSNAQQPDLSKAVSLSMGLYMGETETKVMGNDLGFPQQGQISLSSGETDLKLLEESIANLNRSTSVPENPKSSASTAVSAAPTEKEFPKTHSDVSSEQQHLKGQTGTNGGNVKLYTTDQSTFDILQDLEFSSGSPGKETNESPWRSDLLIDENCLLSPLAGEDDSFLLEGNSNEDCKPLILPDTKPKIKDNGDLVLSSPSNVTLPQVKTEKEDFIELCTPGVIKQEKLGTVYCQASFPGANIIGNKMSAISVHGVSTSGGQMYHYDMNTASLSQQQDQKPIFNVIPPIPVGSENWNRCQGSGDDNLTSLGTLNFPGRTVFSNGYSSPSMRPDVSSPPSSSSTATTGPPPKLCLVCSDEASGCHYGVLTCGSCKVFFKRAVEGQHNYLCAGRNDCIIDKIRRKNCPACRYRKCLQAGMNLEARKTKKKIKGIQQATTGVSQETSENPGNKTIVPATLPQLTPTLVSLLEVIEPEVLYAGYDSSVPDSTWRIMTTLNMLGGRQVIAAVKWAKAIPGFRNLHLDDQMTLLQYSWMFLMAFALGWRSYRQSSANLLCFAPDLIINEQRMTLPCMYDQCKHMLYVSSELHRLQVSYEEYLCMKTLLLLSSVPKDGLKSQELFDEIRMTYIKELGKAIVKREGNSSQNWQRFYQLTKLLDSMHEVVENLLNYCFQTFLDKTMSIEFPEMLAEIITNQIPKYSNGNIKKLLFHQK
To be noted: cited from earlier work.

Series [1] is described as follows: Physician-reported adverse events, VBP15-LTE/DSUR vs published corticosteroid studies. The series is classed as in vivo, human. As for the experimental part: Study visits took place quarterly, including assessment of clinical laboratory results, vital signs, and AEs. All AEs were coded using the Medical Dictionary for Regulatory Activities (MedDRA version 19.0) system for reporting (preferred term and system organ class). Clinical efficacy assessments were performed at baseline of the VBP15-002 study, at six months (end of VBP15-003 study), and the 12-month midpoint visit of the VBP15-LTE study.
The incidences of physician-reported AEs typically for corticosteroid treatment were determined for participants that had been treated with vamorolone 6.0 mg/kg/day (for any duration), taken from the March 2019 Data Safety Update Report (DSUR) (pharmacovigilance report). Incidence rates of Cushingoid features, weight gain, hirsutism, and behavior change were studied (Table 8).

Series [2] is described as follows: VBP15-004 adverse events, Treatment Period 2 / cross-over. It counts as in vivo, human. The method, then: Subjects already on vamorolone continued on the allocated dose level. Efficacy at Week 48 was assessed by Time to Stand ([…]) velocity, 6-Minute Walk Test (6MWT), Time to Run/Walk 10 meters (TTRW) velocity, and North Star Ambulatory Assessment (NSAA). […] In contrast, the persistence of effects with vamorolone 2 mg/kg/day was less pronounced for some parameters. The safety profile was consistent for subjects who continued on the same dose of vamorolone throughout the study, with no increase in frequency or severity of adverse events being observed over time. […] In addition, vamorolone treatment at both doses reversed the growth impairment seen during prednisone treatment and was associated with fewer adverse events, including those associated with corticosteroid use.

The mark [3] stands for this setting: 6.0 mg/kg/day vamorolone, any duration, DSUR Mar. 2019.
Setting [4] is: after switch from prednisone to vamorolone 6 mg/kg/day.

On to `C[C@@H]1C[C@H]2[C@@H]3CCC4=CC(=O)C=C[C@]4(C)C3=CC[C@]2(C)[C@@]1(O)C(=O)CO` [Vamorolone, 17α,21-dihydroxy-16α-methylpregna-1,4,9(11)-triene-3,20-dione], for which the “binding to the glucocorticoid receptor” value at glucocorticoid receptor is “potently binds”. In addition, in series [1] (setting [3]), the “Incidence of Cushingoid” value was 2.6%, the “Incidence of behavior change” value worked out at 0%^2, the Incidence of hypertrichosis/hirsutism is given as 0% and the “Incidence of weight gain” value amounted to 13.2%. In addition, in series [1] (VBP15-LTE, DSMB report), the “Cushingoid features among the 14 probably/definitely related AEs” value stood at 1, the “TEAEs deemed definitely related” value is given as “three”, the “TEAEs deemed possibly related” value is on record as 29 and the “TEAEs deemed probably related” value is on record as 11. Moreover, in series [1] (VBP15-LTE, DSMB report), the “TEAEs deemed remotely related” value was found to be 37, the TEAEs deemed unrelated stood at 402, the “increased appetite among the 14 probably/definitely related AEs” value was 2 and the “irritability among the 14 probably/definitely related AEs” value was found to be 1. Further, in series [1] (VBP15-LTE, DSMB report), the “serious AEs (all deemed unrelated to study drug)” value is “three” and the “weight gain among the 14 probably/definitely related AEs” value was determined as 10. For the same compound, the “serious adverse events reported during vamorolone treatment” value in series [2] (Treatment Period 2) is on record as “Three”. Also, in series [2] (setting [4]), the “number of adverse events” value came out at 44, the “number of adverse events reported as behavioral disorders” value turned out to be 6, the “number of adverse events typically associated with corticosteroids” value is listed as 16 and the “reduction in number of adverse events” value worked out at 37%. Also, the “reduction in number of adverse events typically associated with corticosteroids” value in series [2] (setting [4]) worked out at 60%. Moreover, the “overall safety and tolerability in clinical studies” value in series [2] (in vivo) is “generally safe and well-tolerated”.
